From patent publication US8076487B2, “Pyridone derivative and herbicide” (Kumiai Chemical Industry Co., Ltd., priority 2006, dated 2011)

Experiments:
Type in all cases: in vivo
[1] = system: green foxtail (Setaria viridis (L.) P. Beauv.); test: Test Example 2: herbicidal effect by soil application to upland field; conditions: soil surface spray, upland field soil, 1,000 g active ingredient per hectare, 21st day after application
How it was run: (§1)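 Soil surface treatment after sowing: wettable powder in water, 1,000 g a.i./ha, spray volume 1,000 L/ha. Greenhouse. Scored on a standard herbicidal scale at day 21.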

[2] = system: velvetleaf (Abutilon theophrasti medicus); test: as above; conditions: soil surface spray, upland field soil, 1,000 g active ingredient per hectare, 21st day after application
How it was run: as §1

[3] = system: slender amaranth (Amaranthus viridis L.); test: as above; conditions: soil surface spray, upland field soil, 1,000 g active ingredient per hectare, 21st day after application
How it was run: as §1

[4] = system: barnyardgrass (Echinochloa crus-galli (L.) P. Beauv. var. crus-galli); test: as above; conditions: soil surface spray, upland field soil, 1,000 g active ingredient per hectare, 21st day after application
How it was run: as §1

[5] = system: heartshape false pickerelweed (Monochoria vaginalis (Burm.f.) C.Presl); test: Test Example 1: herbicidal effect by soil application to paddy field; conditions: paddy field soil application; active ingredient 1,000 g per 1 hectare; wettable powder added dropwise to water surface the day after sowing; examined on the 21st day after application
How it was run: (§2)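 Plants were sown in flooded (3 cm) paddy soil and evaluated for herbicidal effect 21 days after soil application in a greenhouse.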

[6] = system: early watergrass (Echinochloa oryzicola Vasing); test: as above; conditions: paddy field soil application; active ingredient 1,000 g per 1 hectare; wettable powder added dropwise to water surface the day after sowing; examined on the 21st day after application
How it was run: as §2

[7] = system: Japanese bulrush (Scirpus juncoides Roxb.); test: as above; conditions: paddy field soil application; active ingredient 1,000 g per 1 hectare; wettable powder added dropwise to water surface the day after sowing; examined on the 21st day after application
How it was run: as §2

[8] = system: green foxtail (Setaria viridis (L.) P. Beauv.); test: Test Example 3: herbicidal effect by application to upland field (foliage treatment); conditions: 14th day after application; for herbicidal effect, Green Foxtail: foliage treatment, 1,000 g active ingredient per 1 hectare, greenhouse
How it was run: (§3)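 Field-soil pots sown with the four weed species and grown two weeks in a greenhouse, then sprayed over the whole plant with wettable powder in water at 1,000 g active ingredient/ha in 1,000 L/ha. Herbicidal effect scored against a rating standard 14 days after treatment.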

[9] = system: velvetleaf (Abutilon theophrasti medicus); test: as above; conditions: 14th day after application; for herbicidal effect, Velvetleaf: foliage treatment, 1,000 g active ingredient per 1 hectare, greenhouse
How it was run: as §3

[10] = system: slender amaranth (Amaranthus viridis L.); test: as above; conditions: 14th day after application; for herbicidal effect, Slender Amaranth: foliage treatment, 1,000 g active ingredient per 1 hectare, greenhouse
How it was run: as §3

[11] = system: barnyardgrass (Echinochloa crus-galli (L.) P. Beauv. var. crus-galli); test: as above; conditions: 14th day after application; for herbicidal effect, Barnyardgrass: foliage treatment, 1,000 g active ingredient per 1 hectare, greenhouse
How it was run: as §3

[12] = foliage treatment, plants grown two weeks, 1,000 g active ingredient per hectare

With `O=C1CCCC(O)=C1C(=O)c1ccc(C(F)(F)F)n(C2CC2)c1=O` [I-16] the “herbicidal effect (index), Green Foxtail” value [1] was 5 (90% or more of herbicidal effect and crop phytotoxicity), the “herbicidal effect (index), Velvetleaf” value [2] was 5 (90% or more of herbicidal effect and crop phytotoxicity) and the “herbicidal effect (index), Slender Amaranth” value [3] was 5 (90% or more of herbicidal effect and crop phytotoxicity). The “herbicidal effect (index), Barnyardgrass” value [4] was 5 (90% or more of herbicidal effect and crop phytotoxicity), the “herbicidal effect, Monochoria vaginalis (Burm. f.) C. Presl” value (from here on “herbicidal effect, Monochoria vaginalis”) [5] was 5 (90% or more of herbicidal effect and crop phytotoxicity) and the “herbicidal effect, Echinochloa oryzicola Vasing” value [6] was 5 (90% or more of herbicidal effect and crop phytotoxicity). The “herbicidal effect, Scirpus juncoides Roxb.” value [7] was 5 (90% or more of herbicidal effect and crop phytotoxicity), the “herbicidal effect (index), Green Foxtail” value [8, 12] was 5 (90% or more of herbicidal effect and crop phytotoxicity) and the “herbicidal effect (index), Velvetleaf” value [9, 12] was 5 (90% or more of herbicidal effect and crop phytotoxicity). The “herbicidal effect (index), Slender Amaranth” value [10, 12] was 5 (90% or more of herbicidal effect and crop phytotoxicity) and the “herbicidal effect (index), Barnyardgrass” value [11, 12] was 5 (90% or more of herbicidal effect and crop phytotoxicity).
`N#Cc1cccc(Cn2c(C(F)(F)F)ccc(C(=O)C3=C(O)CCCC3=O)c2=O)c1` [I-118] was tested, and the “herbicidal effect (index), Green Foxtail” value [1] was 4 (70 to less than 90% of herbicidal effect and crop phytotoxicity), the “herbicidal effect (index), Velvetleaf” value [2] was 5 (90% or more of herbicidal effect and crop phytotoxicity) and the “herbicidal effect (index), Slender Amaranth” value [3] was 5 (90% or more of herbicidal effect and crop phytotoxicity). For the same compound, the “herbicidal effect (index), Barnyardgrass” value [4] was 5 (90% or more of herbicidal effect and crop phytotoxicity), the “herbicidal effect, Monochoria vaginalis” value [5] was 5 (90% or more of herbicidal effect and crop phytotoxicity) and the “herbicidal effect, Echinochloa oryzicola Vasing” value [6] was 5 (90% or more of herbicidal effect and crop phytotoxicity). For the same compound, the “herbicidal effect, Scirpus juncoides Roxb.” value [7] was 5 (90% or more of herbicidal effect and crop phytotoxicity), the “herbicidal effect, Green Foxtail” value [8] was 5 (90% or more of herbicidal effect and crop phytotoxicity) and the “herbicidal effect, Velvetleaf” value [9] was 5 (90% or more of herbicidal effect and crop phytotoxicity). The “herbicidal effect, Slender Amaranth” value [10] was 5 (90% or more of herbicidal effect and crop phytotoxicity) and the “herbicidal effect, Barnyardgrass” value [11] was 5 (90% or more of herbicidal effect and crop phytotoxicity).
In the case of `Cn1ncc(C(=O)c2ccc(C(F)(F)F)n(CCC=C(Cl)Cl)c2=O)c1O` [IV-30], the “herbicidal effect (index), Green Foxtail” value [1] is reported as 3 (50 to less than 70% of herbicidal effect and crop phytotoxicity), the “herbicidal effect (index), Velvetleaf” value [2] is reported as 5 (90% or more of herbicidal effect and crop phytotoxicity) and the “herbicidal effect (index), Slender Amaranth” value [3] is reported as 5 (90% or more of herbicidal effect and crop phytotoxicity). The “herbicidal effect (index), Barnyardgrass” value [4] was 5 (90% or more of herbicidal effect and crop phytotoxicity), the “herbicidal effect, Monochoria vaginalis” value [5] was 5 (90% or more of herbicidal effect and crop phytotoxicity) and the “herbicidal effect, Echinochloa oryzicola Vasing” value [6] was 5 (90% or more of herbicidal effect and crop phytotoxicity). The “herbicidal effect, Scirpus juncoides Roxb.” value [7] was 5 (90% or more of herbicidal effect and crop phytotoxicity), the “herbicidal effect, Green Foxtail” value [8] was 5 (90% or more of herbicidal effect and crop phytotoxicity) and the “herbicidal effect, Velvetleaf” value [9] was 5 (90% or more of herbicidal effect and crop phytotoxicity). For the same compound, the “herbicidal effect, Slender Amaranth” value [10] was 5 (90% or more of herbicidal effect and crop phytotoxicity) and the “herbicidal effect, Barnyardgrass” value [11] was 5 (90% or more of herbicidal effect and crop phytotoxicity).
With `O=C1CCCC(O)=C1C(=O)c1ccc(C(F)(F)F)n(CC2CCOC2)c1=O` (stereo not shown) [I-154] the “herbicidal effect (index), Green Foxtail” value [1] was 3 (50 to less than 70% of herbicidal effect and crop phytotoxicity), the “herbicidal effect (index), Velvetleaf” value [2] was 5 (90% or more of herbicidal effect and crop phytotoxicity) and the “herbicidal effect (index), Slender Amaranth” value [3] was 5 (90% or more of herbicidal effect and crop phytotoxicity). For the same compound, the “herbicidal effect (index), Barnyardgrass” value [4] was 4 (70 to less than 90% of herbicidal effect and crop phytotoxicity), the “herbicidal effect, Monochoria vaginalis” value [5] was 5 (90% or more of herbicidal effect and crop phytotoxicity) and the “herbicidal effect, Echinochloa oryzicola Vasing” value [6] was 5 (90% or more of herbicidal effect and crop phytotoxicity). For the same compound, the “herbicidal effect, Scirpus juncoides Roxb.” value [7] was 5 (90% or more of herbicidal effect and crop phytotoxicity), the “herbicidal effect, Green Foxtail” value [8] was 5 (90% or more of herbicidal effect and crop phytotoxicity) and the “herbicidal effect, Velvetleaf” value [9] was 5 (90% or more of herbicidal effect and crop phytotoxicity). The “herbicidal effect, Slender Amaranth” value [10] was 5 (90% or more of herbicidal effect and crop phytotoxicity) and the “herbicidal effect, Barnyardgrass” value [11] was 4 (70 to less than 90% of herbicidal effect and crop phytotoxicity).
For `COCc1cc(-n2c(C(F)(F)F)ccc(C(=O)C3=C(O)CCCC3=O)c2=O)ccc1F` [I-111], the “herbicidal effect (index), Green Foxtail” value [1] was 5 (90% or more of herbicidal effect and crop phytotoxicity), the “herbicidal effect (index), Velvetleaf” value [2] was 5 (90% or more of herbicidal effect and crop phytotoxicity) and the “herbicidal effect (index), Slender Amaranth” value [3] was 5 (90% or more of herbicidal effect and crop phytotoxicity). The “herbicidal effect (index), Barnyardgrass” value [4] was 5 (90% or more of herbicidal effect and crop phytotoxicity), the “herbicidal effect, Monochoria vaginalis” value [5] was 5 (90% or more of herbicidal effect and crop phytotoxicity) and the “herbicidal effect, Echinochloa oryzicola Vasing” value [6] was 5 (90% or more of herbicidal effect and crop phytotoxicity). The “herbicidal effect, Scirpus juncoides Roxb.” value [7] was 5 (90% or more of herbicidal effect and crop phytotoxicity), the “herbicidal effect, Green Foxtail” value [8] was 5 (90% or more of herbicidal effect and crop phytotoxicity) and the “herbicidal effect, Velvetleaf” value [9] was 5 (90% or more of herbicidal effect and crop phytotoxicity). The “herbicidal effect, Slender Amaranth” value [10] was 5 (90% or more of herbicidal effect and crop phytotoxicity) and the “herbicidal effect, Barnyardgrass” value [11] was 5 (90% or more of herbicidal effect and crop phytotoxicity).
In the case of `Cn1ncc(C(=O)c2ccc(C(F)(F)F)n(C)c2=O)c1OC(=O)OCc1ccc(Cl)cc1` [IV-200], the “herbicidal effect (index), Green Foxtail” value [1] is reported as 4 (70 to less than 90% of herbicidal effect and crop phytotoxicity), the “herbicidal effect (index), Velvetleaf” value [2] is reported as 5 (90% or more of herbicidal effect and crop phytotoxicity) and the “herbicidal effect (index), Slender Amaranth” value [3] is reported as 5 (90% or more of herbicidal effect and crop phytotoxicity). For the same compound, the “herbicidal effect (index), Barnyardgrass” value [4] was 5 (90% or more of herbicidal effect and crop phytotoxicity), the “herbicidal effect, Monochoria vaginalis” value [5] was 5 (90% or more of herbicidal effect and crop phytotoxicity) and the “herbicidal effect, Echinochloa oryzicola Vasing” value [6] was 5 (90% or more of herbicidal effect and crop phytotoxicity). For the same compound, the “herbicidal effect, Scirpus juncoides Roxb.” value [7] was 5 (90% or more of herbicidal effect and crop phytotoxicity), the “herbicidal effect, Green Foxtail” value [8] was 3 (50 to less than 70% of herbicidal effect and crop phytotoxicity) and the “herbicidal effect, Velvetleaf” value [9] was 5 (90% or more of herbicidal effect and crop phytotoxicity). The “herbicidal effect, Slender Amaranth” value [10] was 5 (90% or more of herbicidal effect and crop phytotoxicity) and the “herbicidal effect, Barnyardgrass” value [11] was 4 (70 to less than 90% of herbicidal effect and crop phytotoxicity).
With `CCCn1c(C(F)(F)F)c(C)cc(C(=O)C2=C(O)C3CCC(C3)C2=O)c1=O` (stereo not shown) [III-18] the “herbicidal effect (index), Green Foxtail” value [1] was 3 (50 to less than 70% of herbicidal effect and crop phytotoxicity), the “herbicidal effect (index), Velvetleaf” value [2] was 5 (90% or more of herbicidal effect and crop phytotoxicity) and the “herbicidal effect (index), Slender Amaranth” value [3] was 5 (90% or more of herbicidal effect and crop phytotoxicity). The “herbicidal effect (index), Barnyardgrass” value [4] was 5 (90% or more of herbicidal effect and crop phytotoxicity), the “herbicidal effect, Monochoria vaginalis” value [5] was 5 (90% or more of herbicidal effect and crop phytotoxicity) and the “herbicidal effect, Echinochloa oryzicola Vasing” value [6] was 5 (90% or more of herbicidal effect and crop phytotoxicity). The “herbicidal effect, Scirpus juncoides Roxb.” value [7] was 5 (90% or more of herbicidal effect and crop phytotoxicity), the “herbicidal effect, Green Foxtail” value [8] was 5 (90% or more of herbicidal effect and crop phytotoxicity) and the “herbicidal effect, Velvetleaf” value [9] was 5 (90% or more of herbicidal effect and crop phytotoxicity). For the same compound, the “herbicidal effect, Slender Amaranth” value [10] was 5 (90% or more of herbicidal effect and crop phytotoxicity) and the “herbicidal effect, Barnyardgrass” value [11] was 5 (90% or more of herbicidal effect and crop phytotoxicity).
With `Cn1ncc(C(=O)c2ccc(C(F)(F)F)n(C3CCCC3)c2=O)c1O` [IV-21] the “herbicidal effect (index), Green Foxtail” value [1] was 5 (90% or more of herbicidal effect and crop phytotoxicity), the “herbicidal effect (index), Velvetleaf” value [2] was 5 (90% or more of herbicidal effect and crop phytotoxicity) and the “herbicidal effect (index), Slender Amaranth” value [3] was 5 (90% or more of herbicidal effect and crop phytotoxicity). For the same compound, the “herbicidal effect (index), Barnyardgrass” value [4] was 3 (50 to less than 70% of herbicidal effect and crop phytotoxicity), the “herbicidal effect, Monochoria vaginalis” value [5] was 5 (90% or more of herbicidal effect and crop phytotoxicity) and the “herbicidal effect, Echinochloa oryzicola Vasing” value [6] was 5 (90% or more of herbicidal effect and crop phytotoxicity). The “herbicidal effect, Scirpus juncoides Roxb.” value [7] was 5 (90% or more of herbicidal effect and crop phytotoxicity), the “herbicidal effect, Green Foxtail” value [8] was 4 (70 to less than 90% of herbicidal effect and crop phytotoxicity) and the “herbicidal effect, Velvetleaf” value [9] was 5 (90% or more of herbicidal effect and crop phytotoxicity). The “herbicidal effect, Slender Amaranth” value [10] was 5 (90% or more of herbicidal effect and crop phytotoxicity) and the “herbicidal effect, Barnyardgrass” value [11] was 5 (90% or more of herbicidal effect and crop phytotoxicity).
